Source: PubChem BioAssay (NCI)
Several values for one entry are separate records, joined by “and”; a condition that tells them apart may be missing. Equal entries are not always repeated.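 Dose response: 5 concentrations. Exposure: 48 h. Format: 96-well plates. Endpoint: linear interpolation; highest concentration if not reached. The concentration for 50% growth inhibition is given as GI50. Definition used: TGI = concentration required for complete inhibition of growth.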

Tests used:
Experiment in all cases: growth of human tumour cells (NCI), 48 h
NCI/ADR-RES ovarian = system: NCI/ADR-RES ovarian
HCT-116 colon = system: HCT-116 colon
HT29 colon = system: HT29 colon
NCI-H226 lung = system: NCI-H226 lung
LOX IMVI melanoma = system: LOX IMVI melanoma
BT-549 breast = system: BT-549 breast
NCI-H522 lung = system: NCI-H522 lung
786-0 renal = system: 786-0 renal
UACC-257 melanoma = system: UACC-257 melanoma
IGROV1 ovarian = system: IGROV1 ovarian

Molecule | GI50 (NCI/ADR-RES ovarian) [µM] | TGI (NCI/ADR-RES ovarian) [µM] | GI50 (HCT-116 colon) [µM] | TGI (HCT-116 colon) | GI50 (HT29 colon) | TGI (HT29 colon) | GI50 (NCI-H226 lung) [µM] | TGI (NCI-H226 lung) | GI50 (LOX IMVI melanoma) [µM] | TGI (LOX IMVI melanoma) [µM] | GI50 (BT-549 breast) [µM] | TGI (BT-549 breast) [µM] | GI50 (NCI-H522 lung) [µM] | TGI (NCI-H522 lung) | GI50 (786-0 renal) [µM] | TGI (786-0 renal) | GI50 (UACC-257 melanoma) [µM] | TGI (UACC-257 melanoma) [µM] | GI50 (IGROV1 ovarian) [µM] | TGI (IGROV1 ovarian)
COc1ccc(CCN2CCC(Nc3nc4ccccc4n3Cc3ccc(F)cc3)CC2)cc1 | 1.59 | 3.32 | 1.21 | 2.44 µM | 0.591 µM | 2.36 µM | 1.55 | 3.09 µM | 1.38 | 2.79 | 1.6 | 2.96 | 2.37 | 4.91 µM | 1.46 | 2.77 µM | 1.67 | 3.48 | 2.01 | 4.27 µM
OCC1OC2OC3C(CO)OC(OC4C(CO)OC(OC5C(CO)OC(OC6C(CO)OC(OC7C(CO)OC(OC1C(O)C2O)C(O)C7O)C(O)C6O)C(O)C5O)C(O)C4O)C(O)C3O (configuration not stated) (tested in a mixture with another compound) | – | > 96.1 | – | > 100 µM | – | > 100 µM | – | > 100 µM | – | > 100 | – | > 100 | – | > 100 µM | – | > 100 µM | – | > 100 | – | > 100 µM
CC(C)NC(=O)OCc1c(COC(=O)NC(C)C)c(-c2ccc(Cl)c(Cl)c2)n2c1CCC2 | – | > 100 | – | 73 µM | – | 64.1 µM | – | 47.4 µM | – | 66.6 | – | > 100 | – | > 74.4 µM | – | 44.5 µM | – | 65.9 | – | 70.6 µM
COc1ccc2c(c1)/C(=C\c1c(Cl)n(C)c3ccccc13)C(=O)N2 | 0.629 | 2.03 | 1.29 | > 28.6 µM | 0.574 µM | > 100 µM | 2.19 | 19.5 µM | 0.83 | > 100 | 1.29 | 16.4 | 0.726 | 7.14 µM | 2.18 | 12.5 µM | 1.87 | 13.3 | 0.561 | –
COc1ccc(OC)c(/C=C2\COc3ccc(O)c(O)c3C2=O)c1 | 2.51 | 10.9 | 1.82 | 4.13 µM | 2.68 µM | 6.6 µM | 6.76 | 36.8 µM | 1.48 | 3.02 | 1.71 | 6.71 | 0.219 | 0.58 µM | 2.28 | 7.12 µM | 2.43 | 7.82 | 2.31 | 6.68 µM
Cc1[nH]nc2ccc3nc(-c4ccc5[nH]ncc5c4)c4c(c3c12)CCCC4 | 2.4 | 15.8 | 0.473 | 11.3 µM | 1.51 µM | 12.5 µM | 1.89 | 10.8 µM | 1.22 | 11 | 1.1 | 8.8 | 0.446 | 6.01 µM | 1.19 | 12.9 µM | 1.68 | 6.63 | 0.492 | 7.14 µM
H-HIIKKIRTWYRKAWHVLGKV-NH2 | 5.85 | 28.5 | 17.5 | 42 µM | 14.8 µM | > 100 µM | 4.15 | 39.2 µM | 21.7 | 82.3 | 12.8 | 32.1 | 11.1 | 63.3 µM | 3.37 | 16.6 µM | 8.48 | 59.6 | 4.32 | 28.3 µM
N#Cc1c(N)nc(NCc2ccccc2)c(C#N)c1-c1ccccc1Cl | 37.1 | > 100 | 16.3 | > 100 µM | 73.4 µM | > 100 µM | 2.39 | 14.5 µM | 4.75 | 35.9 | 16.7 | 53.9 | 12.6 | 55 µM | 13.4 | 36.2 µM | > 100 | > 100 | 5.08 | 41.1 µM
Nc1ccc(-c2nc3ccccc3o2)cc1S | 24.9 | 65.2 | 15.1 | 28.3 µM | – | – | 11.8 | 30.4 µM | 12.3 | 24.8 | 23.6 | 49.8 | 35.5 | > 100 µM | 14.5 | 27.6 µM | 23.1 | 59.8 | 19.7 | > 100 µM
O=C(Nc1ccc(OCc2nnc(-c3ccccc3)o2)c(F)c1)Nc1ccc(Cl)c(C(F)(F)F)c1 | 2.27 | 7.65 | 1.81 | 6.37 µM | 2.33 µM | 9.9 µM | 3.65 | 28.3 µM | 2.83 | 12.9 | 3.51 | 13.1 | 1.51 | 4.87 µM | 2.11 | 4.21 µM | – | – | 2.12 | 5.23 µM
Cc1nn(-c2ccccc2)c2nc3c(nc12)C1=NCCN1C(c1ccc(Cl)cc1)N3 (configuration not stated) | 13.4 | 32 | 2.16 | 4.86 µM | 2.5 µM | 5.96 µM | 5.04 | 14.4 µM | 1.94 | 3.91 | 12.6 | 27.1 | 2.83 | 7.14 µM | 2.99 | 8.9 µM | 1.79 | 3.49 | 11.7 | 27.4 µM
COc1cccc(Cn2c(-c3nonc3NC(C)=O)nc3ccccc32)c1 | 3.24 | > 100 | 4.94 | > 100 µM | 3.28 µM | > 100 µM | 5.46 | > 100 µM | 6.1 | > 100 | 8.79 | > 100 | 2.95 | 90.3 µM | 10.4 | > 100 µM | 5.71 | 88.4 | 7.98 | > 100 µM
CC1(C)N=C(N)N=C(N)N1c1cccc(CCCCOc2ccccc2)c1 | > 100 | > 100 | < 0.01 | > 100 µM | < 0.01 µM | 15.7 µM | 0.801 | > 100 µM | 0.0395 | 14.7 | 1.15 | 16.8 | 0.0614 | 13.3 µM | 0.142 | > 100 µM | 0.381 | 23.5 | < 0.0118 | 15.7 µM
OCC1OC(n2cnc3c2NC=NC[C@H]3O)CC1O (some centres not stated) | – | 500 | > 588 | 500 µM and > 588 µM | 469 µM and > 588 µM | 474 µM and > 588 µM | > 588 | 500 µM and > 588 µM | – | 500 | – | > 500 | > 588 | 500 µM and > 588 µM | > 588 | 500 µM and > 588 µM | – | 468 | > 588 | 500 µM and > 588 µM
O=C(CN1C(=O)S/C(=C\C(Cl)=C\c2ccccc2)C1=O)NCCc1ccc(O)cc1 | 2.44 | 8.81 | 1.42 | 3.1 µM | 3.02 µM | 12.3 µM | 1.99 | 4.4 µM | 1.42 | 2.85 | 2.03 | 4.9 | 1.96 | 5.77 µM | 1.84 | 3.54 µM | 2.58 | 14.5 | 1.76 | 3.9 µM
O=C(O)CP(=O)(O)O | – | > 100 | – | > 100 µM | – | > 100 µM | – | > 100 µM | – | > 100 | – | > 100 | – | > 100 µM | – | > 100 µM | – | > 100 | – | > 100 µM
O=C(O)c1ccccc1-c1ccccc1C(=O)Nc1ccc2c(c1)[nH]c(=O)c1ccccc12 | – | > 100 | – | > 100 µM | – | > 100 µM | – | > 100 µM | – | > 100 | – | > 100 | – | > 100 µM | – | > 100 µM | – | > 100 | – | > 100 µM
N=c1n(Cc2ccccc2)c(N)cc(=O)n1Cc1ccccc1 | 2.33 | 5.71 | 2.74 | 10.7 µM | 3.81 µM | 12.8 µM | 3.45 | 9.56 µM | 3.14 | 10.9 | 2.65 | 10.3 | 0.503 | 2.42 µM | 2.97 | 9.76 µM | 3.1 | 11 | 4.04 | > 59.8 µM
CS(=O)(=O)c1ccc(Oc2cc(F)cc(C#N)c2)c2c1[C@H](O)C(F)(F)C2 | > 100 | > 100 | > 100 | > 100 µM | > 100 µM | > 100 µM | > 100 | > 100 µM | > 100 | > 100 | > 100 | > 100 | > 100 | > 100 µM | > 100 | > 100 µM | – | – | > 100 | > 100 µM
O=C1CC[C@H](c2ccc(O)c3c2C(=O)[C@@H]2O[C@@H]2C3=O)c2cccc(O)c21 | 3.01 | 15.1 | 1.97 | 3.89 µM | 2.33 µM | 6.3 µM | 3.21 | 12.4 µM | 0.976 | 3.86 | 2.38 | 6.42 | 1.72 | 3.33 µM | 1.79 | 3.43 µM | 2.98 | 9 | – | –
